Data published in patent US9328106B2, “Cyclic ether pyrazol-4-yl-heterocyclyl-carboxamide compounds and methods of use” (Genentech, Inc., priority 2012, dated 2016).
Read-outs that look alike come from different tables or passages of the source.

What was measured:
PIM1 = PIM1 (Homo sapiens (Human), UniProt P11309); test: biochemical; assay type: biochemical; conditions: 20 pM PIM1, 1 μM FAM-peptide, 10 μM ATP, 90 minutes at room temperature; read-out: PIM1 LC3K (KI)
BaF3 parental cells = test: In vitro cell proliferation, BaF3 parental line + IL3; assay type: cell-based, murine; conditions: Mus musculus;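 further: BaF3 parental cells are murine IL-3 dependent pro-B cells grown with 2 ng/mL mIL-3, 384-well format, viability read by luminescence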
BaF3 PIM1 cells = test: In vitro cell proliferation, BaF3 transfected with PIM1; assay type: cell-based, murine; conditions: Mus musculus, BaF3, read-out: Prolif BaF3 PIM1 (IC50), BaF3 PIM1 cells, incubated overnight, CELL TITER GLO;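 further: murine IL-3-dependent pro-B BaF3 cells transfected with PIM1, compound exposure overnight at 37 °C under 5% CO2, viability read as luminescence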
[1] = test system: MM1.S (multiple myeloma) cells; test: In vitro cell proliferation, MM1.S multiple myeloma cells; assay type: cell-based; conditions: Homo sapiens, MM1.S, 72 h, read-out: Prolif MM1S ATP (EC50);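 further: cells cultured in RPMI with 10% FBS and 2 mM L-Glutamine, seeded in 384-well plates, exposed to compound, cell viability measured by luminescence after CellTiter-Glo addition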
[2] = BaF3, BaF3 parental, mIL-3, incubated overnight, CELL TITER GLO, read-out: Prolif BaF3 IL3 (IC50)
[3] = MM1.S cells, 72 hours, CELL TITER GLO

Sequence of PIM1 (P11309 whole entry): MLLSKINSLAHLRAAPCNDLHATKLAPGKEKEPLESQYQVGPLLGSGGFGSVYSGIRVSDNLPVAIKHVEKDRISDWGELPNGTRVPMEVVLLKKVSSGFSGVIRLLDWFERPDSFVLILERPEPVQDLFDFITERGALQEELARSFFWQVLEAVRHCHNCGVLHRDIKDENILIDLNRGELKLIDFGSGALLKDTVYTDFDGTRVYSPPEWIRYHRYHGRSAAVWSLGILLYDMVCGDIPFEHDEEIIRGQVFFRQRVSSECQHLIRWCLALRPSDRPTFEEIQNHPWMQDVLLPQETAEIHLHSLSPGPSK

Row | Ki (PIM1) [nM] | IC50 (BaF3 PIM1 cells) [nM] | EC50 [1, 3] [nM] | SMILES | IC50 (BaF3 parental cells; BaF3, read-out: Prolif BaF3 IL3 (IC50)) [nM] | EC50 [1] [nM] | IC50 (BaF3 parental cells; [2]) [nM]
1 | 0.006 | 24.7 | 109 | Cn1ncc(NC(=O)c2nc(-c3c(F)cccc3F)sc2N)c1C1CC[C@@H](N)[C@@H](F)CO1 (stereo partly drawn) [Example 129, 5-amino-N-(5-((5R,6R)-5-amino-6-fluorooxepan-2-yl)-1-methyl-1H-pyrazol-4-yl)-2-(2,6-difluorophenyl)thiazole-4-carboxamide] |  |  | 6900
2 | 0.27 | 1500 | 10000 | Cn1ncc(NC(=O)c2nc(-c3c(F)cccc3F)sc2N)c1C1CC[C@H](N)[C@H](F)CO1 (stereo partly drawn) [Example 131, 5-amino-N-(5-((5S,6S)-5-amino-6-fluorooxepan-2-yl)-1-methyl-1H-pyrazol-4-yl)-2-(2,6-difluorophenyl)thiazole-4-carboxamide] |  |  | 6800
3 | 0.00509 | 15.2 | 34.5 | Cn1ncc(NC(=O)c2nc(-c3ccccc3F)sc2N)c1[C@@H]1CC[C@@H](N)[C@H](F)CO1 [Example 317, 5-amino-N-(5-((2S,5R,6S)-5-amino-6-fluorooxepan-2-yl)-1-methyl-1H-pyrazol-4-yl)-2-(2-fluorophenyl)thiazole-4-carboxamide] |  |  | 7900
4 | 0.038 | 129 | 875 | Cn1ncc(NC(=O)c2csc(-c3c(F)cccc3F)n2)c1[C@@H]1CC[C@@H](N)[C@@H](F)CO1 [Example 319, N-(5-((2S,5R,6R)-5-amino-6-fluorooxepan-2-yl)-1-methyl-1H-pyrazol-4-yl)-2-(2,6-difluorophenyl)thiazole-4-carboxamide] |  |  | 7800
5 | 0.036 | 24.4 | 187 | Cn1ncc(NC(=O)c2nc(-c3ccccc3)sc2N)c1[C@@H]1CC[C@@H](N)[C@H](F)CO1 [Example 320, 5-amino-N-(5-((2S,5R,6S)-5-amino-6-fluorooxepan-2-yl)-1-methyl-1H-pyrazol-4-yl)-2-phenylthiazole-4-carboxamide] |  |  | > 25000
6 | 0.0137 | 50.6 | 385 | Cn1ncc(NC(=O)c2csc(-c3c(F)cccc3F)n2)c1[C@@H]1CC[C@@H](N)[C@H](F)CO1 [Example 321, N-(5-((2S,5R,6S)-5-amino-6-fluorooxepan-2-yl)-1-methyl-1H-pyrazol-4-yl)-2-(2,6-difluorophenyl)thiazole-4-carboxamide] |  |  | 4400
7 | 0.072 | 113 | 1500 | Cn1ncc(NC(=O)c2csc(-c3ccccc3F)n2)c1[C@@H]1CC[C@@H](N)[C@H](F)CO1 [Example 322, N-(5-((2S,5R,6S)-5-amino-6-fluorooxepan-2-yl)-1-methyl-1H-pyrazol-4-yl)-2-(2-fluorophenyl)thiazole-4-carboxamide] |  |  | 6300
8 | 0.283 | 186 | 10000 | Cn1ncc(NC(=O)c2nc(-c3ccccc3C(F)(F)F)sc2N)c1[C@@H]1CC[C@@H](N)[C@H](F)CO1 [Example 323, 5-amino-N-(5-((2S,5R,6S)-5-amino-6-fluorooxepan-2-yl)-1-methyl-1H-pyrazol-4-yl)-2-(2-(trifluoromethyl)phenyl)thiazole-4-carboxamide] |  |  | > 25000
9 | 0.019 | 45.3 | 116 | Cn1ncc(NC(=O)c2nc(-c3cccc(F)c3F)sc2N)c1[C@@H]1CC[C@@H](N)[C@H](F)CO1 [Example 324, 5-amino-N-(5-((2S,5R,6S)-5-amino-6-fluorooxepan-2-yl)-1-methyl-1H-pyrazol-4-yl)-2-(2,3-difluorophenyl)thiazole-4-carboxamide] |  |  | > 25000
10 | 0.05 | 142 | 735 | Cn1ncc(NC(=O)c2csc(-c3ccc(F)cc3F)n2)c1[C@@H]1CC[C@@H](N)[C@H](F)CO1 [Example 325, N-(5-((2S,5R,6S)-5-amino-6-fluorooxepan-2-yl)-1-methyl-1H-pyrazol-4-yl)-2-(2,4-difluorophenyl)thiazole-4-carboxamide] |  |  | 6300
11 | 0.031 | 132 | 436 | Cn1ncc(NC(=O)c2csc(-c3ccccn3)n2)c1[C@@H]1CC[C@@H](N)[C@H](F)CO1 [Example 326, N-(5-((2S,5R,6S)-5-amino-6-fluorooxepan-2-yl)-1-methyl-1H-pyrazol-4-yl)-2-(pyridin-2-yl)thiazole-4-carboxamide] |  |  | 12400
12 | 0.021 | 176 | 648 | Cn1ncc(NC(=O)c2csc(-c3ccccc3)n2)c1[C@@H]1CC[C@@H](N)[C@H](F)CO1 [Example 327, N-(5-((2S,5R,6S)-5-amino-6-fluorooxepan-2-yl)-1-methyl-1H-pyrazol-4-yl)-2-phenylthiazole-4-carboxamide] |  |  | 16800
13 | 0.036 | 21.4 | 1500 | Cn1ncc(NC(=O)c2nc(-c3c(F)cccc3Cl)sc2N)c1[C@@H]1CC[C@@H](N)[C@H](F)CO1 [Example 328, 5-amino-N-(5-((2S,5R,6S)-5-amino-6-fluorooxepan-2-yl)-1-methyl-1H-pyrazol-4-yl)-2-(2-chloro-6-fluorophenyl)thiazole-4-carboxamide] |  |  | 12500
14 | 0.014 | 52.2 | 1900 | COC1(c2cc(F)c(-c3nc(C(=O)Nc4cnn(C)c4[C@@H]4CC[C@@H](N)[C@H](F)CO4)cs3)c(F)c2)COC1 [Example 339, N-(5-((2S,5R,6S)-5-amino-6-fluorooxepan-2-yl)-1-methyl-1H-pyrazol-4-yl)-2-(2,6-difluoro-4-(3-methoxyoxetan-3-yl)phenyl)thiazole-4-carboxamide] |  |  | > 25000
15 | 0.01 | 51.7 | > 6200 | Cn1ncc(NC(=O)c2csc(-c3c(F)cc(C4(F)COC4)cc3F)n2)c1[C@@H]1CC[C@@H](N)[C@H](F)CO1 [Example 340, N-(5-((2S,5R,6S)-5-amino-6-fluorooxepan-2-yl)-1-methyl-1H-pyrazol-4-yl)-2-(2,6-difluoro-4-(3-fluorooxetan-3-yl)phenyl)thiazole-4-carboxamide] |  |  | 20700
16 | 0.014 | 157 | 3300 | CO[C@@H]1CO[C@H](c2c(NC(=O)c3csc(-c4c(F)cccc4F)n3)cnn2C)CC[C@H]1N [Example 347, N-(5-((2S,5R,6S)-5-amino-6-methoxyoxepan-2-yl)-1-methyl-1H-pyrazol-4-yl)-2-(2,6-difluorophenyl)thiazole-4-carboxamide] |  |  | 5000
17 | 0.014 | 359 | 1000 | CO[C@@H]1CO[C@H](c2c(NC(=O)c3csc(-c4ncccc4C)n3)cnn2C)CC[C@H]1N [Example 348, N-(5-((2S,5R,6S)-5-amino-6-methoxyoxepan-2-yl)-1-methyl-1H-pyrazol-4-yl)-2-(3-methylpyridin-2-yl)thiazole-4-carboxamide] |  |  | 10500
18 | 0.076 | 621 | 520 | Cn1ncc(NC(=O)c2csc(-c3c(F)cccc3F)n2)c1[C@H]1CC[C@H](N)[C@H](O)CO1 [Example 351, N-(5-((2R,5S,6S)-5-amino-6-hydroxyoxepan-2-yl)-1-methyl-1H-pyrazol-4-yl)-2-(2,6-difluorophenyl)thiazole-4-carboxamide] |  |  | 9900
19 | 0.083 | 3400 | 5100 | CN(C)C(=O)c1cc(F)c(-c2nc(C(=O)Nc3cnn(C)c3[C@@H]3CC[C@@H](N)[C@H](F)CO3)cs2)c(F)c1 [Example 354, N-(5-((2S,5R,6S)-5-amino-6-fluorooxepan-2-yl)-1-methyl-1H-pyrazol-4-yl)-2-(4-(dimethylcarbamoyl)-2,6-difluorophenyl)thiazole-4-carboxamide] |  |  | 7300
20 | 0.035 | 53.5 | 1600 | CO[C@@H]1CO[C@H](c2c(NC(=O)c3csc(-c4c(F)cc(C)cc4F)n3)cnn2C)CC[C@H]1N [Example 355, N-(5-((2S,5R,6S)-5-amino-6-methoxyoxepan-2-yl)-1-methyl-1H-pyrazol-4-yl)-2-(2,6-difluoro-4-methylphenyl)thiazole-4-carboxamide] |  |  | 3900
21 | 0.053 | 108 | 1400 | COc1ccc(F)c(-c2nc(C(=O)Nc3cnn(C)c3[C@@H]3CC[C@@H](N)[C@H](F)CO3)cs2)c1 [Example 356, N-(5-((2S,5R,6S)-5-amino-6-fluorooxepan-2-yl)-1-methyl-1H-pyrazol-4-yl)-2-(2-fluoro-5-methoxyphenyl)thiazole-4-carboxamide] |  |  | 6500
22 | 0.009 | 68.2 | 938 | Cn1ncc(NC(=O)c2csc(-c3c(F)cc(C4CC4)cc3F)n2)c1[C@@H]1CC[C@@H](N)[C@H](F)CO1 [Example 358, N-(5-((2S,5R,6S)-5-amino-6-fluorooxepan-2-yl)-1-methyl-1H-pyrazol-4-yl)-2-(4-cyclopropyl-2,6-difluorophenyl)thiazole-4-carboxamide] |  |  | 4100

Row | SMILES | Ki (PIM1) [nM] | IC50 (BaF3 PIM1 cells) [nM] | EC50 [1, 3] [nM] | IC50 (BaF3 parental cells; BaF3, read-out: Prolif BaF3 IL3 (IC50)) [nM] | EC50 [1] [nM] | IC50 (BaF3 parental cells; [2]) [nM]
23 | CO[C@@H]1COC(c2c(NC(=O)c3nc(-c4c(F)cccc4F)sc3N)cnn2C)CC[C@H]1N (stereo partly drawn) [Example 126, 5-amino-N-(5-((5R,6S)-5-amino-6-methoxyoxepan-2-yl)-1-methyl-1H-pyrazol-4-yl)-2-(2,6-difluorophenyl)thiazole-4-carboxamide] | 0.026 | 25.2 |  | 25000 | 21.7 | 
